# Patent publication US7368287B2, “Use of L-α-lysophosphatidylcholine to obtain the differentiation of monocytes into mature dendritic cells in vitro” (Biomerieux, priority 2002, dated 2008)
# Legend:
# PPARγ = target: T1, PPARγ (Homo sapiens, UniProt P37231); experiment: PPAR binding activity by gel shift on nuclear proteins of treated monocytes; type: cell-based
# T1 construct: After having harvested the cells, the nuclear proteins were extracted with the Nuclear extract Kit (Sigma); endogenous in cells; host or cells: monocytes undergoing differentiation into dendritic cells (nuclear extract)
# T1 sequence (P37231 1-505): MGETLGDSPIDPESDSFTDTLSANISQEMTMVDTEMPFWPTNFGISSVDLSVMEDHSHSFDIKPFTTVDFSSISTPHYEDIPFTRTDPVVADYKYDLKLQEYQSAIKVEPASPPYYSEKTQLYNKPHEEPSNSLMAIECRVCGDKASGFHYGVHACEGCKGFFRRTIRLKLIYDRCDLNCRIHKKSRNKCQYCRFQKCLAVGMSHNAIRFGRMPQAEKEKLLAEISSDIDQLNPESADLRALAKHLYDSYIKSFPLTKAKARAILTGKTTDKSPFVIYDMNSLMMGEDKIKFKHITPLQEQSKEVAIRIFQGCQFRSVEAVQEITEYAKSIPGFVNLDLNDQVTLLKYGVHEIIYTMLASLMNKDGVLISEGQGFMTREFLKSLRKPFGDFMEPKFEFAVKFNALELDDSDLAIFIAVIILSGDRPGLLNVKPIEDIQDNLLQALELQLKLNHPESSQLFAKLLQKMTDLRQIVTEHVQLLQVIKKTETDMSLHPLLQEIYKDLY
# Description: Next, the inventors investigated the transcription factors involved in the maturation process induced by LPC. In order to determine whether PPARs are involved in the LPC-induced maturation, the ability of the two transcription factors PPARγ and PPARδ to bind was analyzed using the gel shift technique. 3 isotypes of PPAR nuclear receptors (peroxisome proliferator-activated receptor) exist: α, γ and δ. PPARγs are the targets for molecules of the thiazolidinedione class, such as ciglitizone, used in the treatment of type II diabetes. PPARδs have a broader expression and can be repressors of PPARγs. The monocytes undergoing differentiation were incubated for two hours with a solution of LPC (40 μM) (“LPC” cells). “Control” cells are also obtained in the absence of LPC in the culture medium. After having harvested the cells, the nuclear proteins were extracted with the Nuclear extract Kit (Sigma). The nuclear proteins were then brought into contact with a ratioactively labeled probe containing a response element recognized by PPARs. […] The PPAR binding activity was determined by measuring the intensity of these bands. These activities are expressed as a percentage with respect to the “control” cells. […]
# The activity of the PPARγ and PPARδ transcription factors was measured in these cells by the gel shift technique, as described above.
# INTRALIPID® regulates PPARs in vitro. […] The cells were harvested after 1 h, 2 h or 8 h of incubation with INTRALIPID®, the nuclear proteins were extracted and the activity of PPARγ and PPARδ was determined as described in example 6.
# Secondly, a solution of INTRALIPID® (50 μg/ml of phospholipids) was added to the culture medium on the 5th day of monocyte differentiation, 15 minutes before the addition of a solution of LPC (40 μM) (“LPC+Intralipid” cells). […] The cells were harvested after 2 h of incubation, the nuclear proteins were extracted and the activity of PPARγ and PPARδ was determined as described in example 6.
# [1] = test system: Gi protein-coupled receptors; experiment: Induction of CD86 by LPC after preincubation with pertussis toxin; type: cell-based, human; details: LPC cells = 100%; PTX 100 ng/ml for 3 hours before LPC
# Description: The phenotype of the “control” and “LPC” cells is analyzed by flow cytometry on a FACSCalibur (Becton Dickinson, Francklin Lakes, N.J., USA) using FITC (fluorosceine isothiocyanate)-conjugated anti-CD14, anti-HLA-DR and anti-CD80 and PE (phycoerythrin)-conjugated anti-CD1a, anti-CD83, anti-CD86 and anti-CD40 (Beckman Coulter). According to the state of the art, monocytes preferentially have a CD14+ CD1a− phenotype, immature dendritic cells preferentially have a CD14− CD1a+CD86− phenotype, and mature dendritic cells preferentially have a CD14− CD1a intermediate—CD86+ phenotype.
# Initially, in order to determine whether the receptors involved in the action of LPC in the differentiation of monocytes into mature dendritic cells belonged to the family of G protein-coupled receptors, PTX (pertussis toxin; 100 ng/ml), known to block Gi proteins, was added to the culture medium for 3 hours. The culture medium was then changed and the LPC was added as described in example 1.
# BALB/c mice = experiment: Inflammation of the plantar foot pad (thickening of the foot); type: in vivo, mouse; details: after 24 h
# Description: LPC is an inflammatory product—In this example, a solution of 100 to 500 nmol of LPC dissolved in 50 μl of PBS is injected into the plantar foot pad of BALB/c mice (Charles River Laboratories) on day 0. The plantar foot pads are measured using a micrometer before and after injection, up to the 10th day, and compared to the plantar foot pads of “control” mice, obtained by injection of PBS (50 μl). The intensity of the inflammation is reflected by the thickening of the foot. The maximum thickening is observed on the 1st day, 24 h after the injection.
# INTRALIPID® blocks the inflammation and the immune response induced by LPC, in vivo. In this example, 3 batches of BALB/c mice are immunized against the hen egg lysozyme (HEL) antigen by injection of 50 μl of solution into the plantar foot pad. The “HEL” control batch receives 50 μg of HEL, the “HEL+Intralipid” batch receives a mixture of INTRALIPID® (45 μl) and of 50 μg of HEL (5 μl of a solution at 10 mg/ml). The “HEL+LPC” batch receives 50 μg of HEL with 350 nmol of LPC dissolved in PBS. The “HEL+LPC+Intralipid” batch receives 50 μg of HEL mixed with 350 nmol of LPC dissolved in 45 μl of INTRALIPID®. After 24 hours, the thickness of the foot pads is measured using a micrometer, and compared with the measurement taken before injection. The difference in thickness is proportional to the intensity of the inflammation.
substance,measurement,setting,value
L-α-lysophosphatidylcholine [LPC],PPARγ binding activity,"PPARγ; Table 6, LPC 40 μM, two hours, percentage with respect to control cells",0%
same,PPARγ activity,"PPARγ; Table 16, Intralipid 50 μg/ml phospholipids 15 minutes before LPC 40 μM, 2 h, control = 100%",1%
same,Induction of CD86,[1],100%
same,Thickening of the foot,BALB/c mice; LPC 100 nmol in 50 μl PBS into plantar foot pad,0.35 mm
same,Thickening of the foot,BALB/c mice; LPC 200 nmol,0.55 mm
same,Thickening of the foot,BALB/c mice; LPC 300 nmol,0.725 mm
same,Thickening of the foot,BALB/c mice; LPC 400 nmol,1.125 mm
same,Thickening of the foot,BALB/c mice; LPC 500 nmol,1.075 mm
